The data set in a line: Storage stability: content of active ingredient in water dispersible granules. It is filed as physicochemical. How it is done: A test on the storage stability was performed with the following results:
Comparison of stability of fluoroxypyr and metsulfuon-methyl when a WG granulation is made according to U.S. Pat. No. 5,688,743 (Dow) and the encapsulation step has been omitted and replaced by a joint milling of the corresponding amount of fluoroxypyr and metsulfuron-methyl: […]

Where [1] appears, read: FXY + MET 26 WG (Fluroxypyr 250 g/kg + Metsulfuron 10 g/kg WG, microencapsulated fluroxypyr), test item FXY-MSF_0604, column without storage.
The mark [2] stands for this setting: FXY + MET 26 WG (microencapsulated fluroxypyr), GLASS, 0 ± 2° C., after storage.
[3] abbreviates: FXY + MET 26 WG (microencapsulated fluroxypyr), GLASS, 54 ± 2° C., after storage.
The mark [4] stands for this setting: FXY + MET 26 WG (microencapsulated fluroxypyr), PLASTIC, 0 ± 2° C., after storage.
The mark [5] stands for this setting: FXY + MET 26 WG (microencapsulated fluroxypyr), PLASTIC, 54 ± 2° C., after storage.
Where [6] appears, read: Fluroxypyr 250 g/kg + Metsulfuron 10 g/kg WG WITHOUT microencapsulation of fluroxypyr (joint milling, per US 5,688,743), test item FXY-MSF_060/, column without storage.
The mark [7] stands for this setting: WG WITHOUT microencapsulation of fluroxypyr, GLASS, 0 ± 2° C., after storage.
The mark [8] stands for this setting: WG WITHOUT microencapsulation of fluroxypyr, GLASS, 54 ± 2° C., after storage.
[9] abbreviates: WG WITHOUT microencapsulation of fluroxypyr, PLASTIC, 0 ± 2° C., after storage.
The mark [10] stands for this setting: WG WITHOUT microencapsulation of fluroxypyr, PLASTIC, 54 ± 2° C., after storage.

Consider `Nc1c(Cl)c(F)nc(OCC(=O)O)c1Cl` [Fluroxypyr], for which the “Content of active ingredient” value was found to be 39.37 wt-% under setting [1]; 38.65 wt-% under setting [2]; 38.57 wt-% under setting [3]; 38.51 wt-% under setting [4]; 38.35 wt-% under setting [5]; 39.41 wt-% under setting [6]. Moreover, the “Content of active ingredient” value runs as follows: under setting [7], 34.44 wt-%; under setting [8], 28.02 wt-%; under setting [9], 36.34 wt-%; under setting [10], 16.05 wt-%.

Regarding `COc1nc(C)nc(NC(=O)NS(=O)(=O)c2ccccc2C(=O)O)n1` [Metsulfuron], the “Content of active ingredient” value is recorded as 1.18 wt-% under setting [1]; 1.18 wt-% under setting [2]; 1.18 wt-% under setting [3]; 1.19 wt-% under setting [4]; 1.18 wt-% under setting [5]; 1.16 wt-% under setting [6]. Further, the “Content of active ingredient” value runs as follows: under setting [7], 0.35 wt-%; under setting [8], 0.21 wt-%; under setting [9], 0.39 wt-%; under setting [10], 0.24 wt-%.
